Holding throughout (type): cell-based
In assay [1] the target is T1, human TLR9 (Homo sapiens, UniProt Q9NR96).
T1 construct: host or cells: HEK-Blue cells (HEK293-derived reporter line)
T1 sequence (Q9NR96 26-1032): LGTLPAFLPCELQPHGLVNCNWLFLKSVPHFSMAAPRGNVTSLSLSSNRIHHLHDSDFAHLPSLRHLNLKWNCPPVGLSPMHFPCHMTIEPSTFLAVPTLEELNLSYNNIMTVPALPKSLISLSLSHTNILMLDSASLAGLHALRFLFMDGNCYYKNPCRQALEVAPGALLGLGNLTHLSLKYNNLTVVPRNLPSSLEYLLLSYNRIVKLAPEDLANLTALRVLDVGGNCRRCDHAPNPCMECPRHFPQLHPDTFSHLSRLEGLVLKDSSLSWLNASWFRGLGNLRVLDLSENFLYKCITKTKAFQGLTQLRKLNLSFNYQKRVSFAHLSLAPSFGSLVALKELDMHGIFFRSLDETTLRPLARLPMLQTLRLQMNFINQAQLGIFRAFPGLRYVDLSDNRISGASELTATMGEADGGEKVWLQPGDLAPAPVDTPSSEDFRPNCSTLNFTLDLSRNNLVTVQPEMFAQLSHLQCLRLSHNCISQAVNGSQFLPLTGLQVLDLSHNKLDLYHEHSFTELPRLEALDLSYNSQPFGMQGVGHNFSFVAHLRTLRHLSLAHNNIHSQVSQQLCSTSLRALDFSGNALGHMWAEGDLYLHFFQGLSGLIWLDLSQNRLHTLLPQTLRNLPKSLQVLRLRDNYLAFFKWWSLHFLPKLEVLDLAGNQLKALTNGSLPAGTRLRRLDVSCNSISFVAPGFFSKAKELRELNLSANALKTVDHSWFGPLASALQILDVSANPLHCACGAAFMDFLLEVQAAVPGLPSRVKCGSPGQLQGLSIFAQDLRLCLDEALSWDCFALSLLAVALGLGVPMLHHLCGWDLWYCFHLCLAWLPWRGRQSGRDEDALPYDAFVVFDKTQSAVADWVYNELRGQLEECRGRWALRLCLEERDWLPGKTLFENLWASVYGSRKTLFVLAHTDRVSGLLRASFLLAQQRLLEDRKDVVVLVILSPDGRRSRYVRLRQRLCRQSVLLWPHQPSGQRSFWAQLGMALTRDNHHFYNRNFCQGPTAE
The experiment in a line: TLR9 inhibition reporter assay (HEK-Blue cells, secreted embryonic alkaline phosphatase reporter). The gist of the method: (§1)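 Steps: seed receptor-specific HEK-Blue cells; add compound, 0.05 nM–50 μM; wait 30 min at room temperature; add final gardiquimod 7.5 μM, R848 15.9 μM or ODN2006 5 nM for TLR7, TLR8 or TLR9; incubate 22 h at 37 °C; detect NF-κB/AP-1-driven SEAP.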

Assay [2] concerns the target T2, human TLR7 (Homo sapiens, UniProt Q9NYK1).
T2 construct: host or cells: HEK-Blue cells (HEK293-derived reporter line)
T2 sequence (Q9NYK1 27-1049): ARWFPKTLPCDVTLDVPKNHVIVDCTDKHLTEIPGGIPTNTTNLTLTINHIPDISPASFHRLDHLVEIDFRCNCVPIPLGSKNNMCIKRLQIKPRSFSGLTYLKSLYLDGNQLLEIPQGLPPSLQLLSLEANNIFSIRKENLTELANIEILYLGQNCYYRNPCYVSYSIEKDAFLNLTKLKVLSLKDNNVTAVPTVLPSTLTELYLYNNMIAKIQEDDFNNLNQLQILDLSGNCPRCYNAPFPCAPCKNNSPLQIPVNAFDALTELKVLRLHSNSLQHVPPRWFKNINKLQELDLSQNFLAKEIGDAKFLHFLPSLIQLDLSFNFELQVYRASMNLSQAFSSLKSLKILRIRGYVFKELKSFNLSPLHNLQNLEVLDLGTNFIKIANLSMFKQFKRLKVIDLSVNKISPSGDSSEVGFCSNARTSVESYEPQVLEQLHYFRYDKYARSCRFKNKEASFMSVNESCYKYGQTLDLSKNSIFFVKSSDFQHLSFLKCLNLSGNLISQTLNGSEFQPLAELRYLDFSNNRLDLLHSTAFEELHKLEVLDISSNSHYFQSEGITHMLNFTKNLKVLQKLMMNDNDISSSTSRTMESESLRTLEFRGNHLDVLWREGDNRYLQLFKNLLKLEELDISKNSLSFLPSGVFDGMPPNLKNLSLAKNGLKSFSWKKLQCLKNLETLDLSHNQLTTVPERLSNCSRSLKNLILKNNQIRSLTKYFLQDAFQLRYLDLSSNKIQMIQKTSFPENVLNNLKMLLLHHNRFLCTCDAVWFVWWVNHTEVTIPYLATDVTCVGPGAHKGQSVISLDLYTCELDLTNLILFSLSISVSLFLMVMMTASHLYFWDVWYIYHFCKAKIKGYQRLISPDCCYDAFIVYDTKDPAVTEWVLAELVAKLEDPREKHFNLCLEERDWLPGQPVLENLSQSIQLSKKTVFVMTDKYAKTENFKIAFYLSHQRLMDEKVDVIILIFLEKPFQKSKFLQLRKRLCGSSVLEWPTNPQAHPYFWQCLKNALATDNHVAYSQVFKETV
The experiment in a line: TLR7 inhibition reporter assay (HEK-Blue cells, secreted embryonic alkaline phosphatase reporter). The settings on record: HEK-Blue cells overexpressing human TLR7, stimulated with gardiquimod 7.5 μM; read-out: TLR 7 IC50. An outline of the steps:
as §1

Assay [3] deals with T3, human TLR8 (Homo sapiens, UniProt Q9NR97).
T3 construct: host or cells: HEK-Blue cells (HEK293-derived reporter line)
T3 sequence (Q9NR97 27-1041): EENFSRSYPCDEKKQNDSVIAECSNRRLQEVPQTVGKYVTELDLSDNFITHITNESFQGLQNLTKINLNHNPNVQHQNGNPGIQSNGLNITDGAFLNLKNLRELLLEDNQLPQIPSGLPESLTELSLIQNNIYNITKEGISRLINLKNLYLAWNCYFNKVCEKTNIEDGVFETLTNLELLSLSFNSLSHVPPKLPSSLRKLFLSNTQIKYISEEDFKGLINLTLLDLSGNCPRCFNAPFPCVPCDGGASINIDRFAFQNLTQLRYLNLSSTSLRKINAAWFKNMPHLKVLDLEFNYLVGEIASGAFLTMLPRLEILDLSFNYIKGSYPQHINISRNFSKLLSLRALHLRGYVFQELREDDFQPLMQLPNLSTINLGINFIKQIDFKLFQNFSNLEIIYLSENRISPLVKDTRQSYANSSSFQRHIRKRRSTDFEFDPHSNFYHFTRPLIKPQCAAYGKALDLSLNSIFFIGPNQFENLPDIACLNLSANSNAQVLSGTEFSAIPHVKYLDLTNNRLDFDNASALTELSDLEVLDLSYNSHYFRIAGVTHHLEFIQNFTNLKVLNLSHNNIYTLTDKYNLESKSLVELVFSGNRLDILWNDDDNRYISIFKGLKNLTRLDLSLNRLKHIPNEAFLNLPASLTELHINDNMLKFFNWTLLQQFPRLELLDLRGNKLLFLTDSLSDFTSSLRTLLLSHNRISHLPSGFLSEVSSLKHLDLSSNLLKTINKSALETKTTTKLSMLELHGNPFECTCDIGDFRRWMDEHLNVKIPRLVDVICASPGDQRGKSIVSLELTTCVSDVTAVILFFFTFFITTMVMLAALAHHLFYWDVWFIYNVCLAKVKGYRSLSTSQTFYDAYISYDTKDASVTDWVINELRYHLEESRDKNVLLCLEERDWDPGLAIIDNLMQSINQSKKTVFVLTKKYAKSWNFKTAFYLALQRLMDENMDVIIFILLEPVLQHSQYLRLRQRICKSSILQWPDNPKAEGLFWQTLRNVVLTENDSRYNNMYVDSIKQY
The experiment in a line: TLR8 inhibition reporter assay (HEK-Blue cells, secreted embryonic alkaline phosphatase reporter). The settings on record: HEK-Blue cells overexpressing human TLR8, stimulated with R848 15.9 μM; read-out: TLR 8 IC50. An outline of the steps: as §1

The mark [4] stands for this setting: HEK-Blue cells overexpressing human TLR9, stimulated with ODN2006 5 nM, 22 hour incubation, reporter readout.
Where [5] appears, read: HEK-Blue cells overexpressing human TLR9, stimulated with ODN2006 5 nM, read-out: TLR 9 IC50.
Setting [6] is: HEK-Blue human TLR9 reporter cells.

Where two headings read alike, the source gives them in different places.

What is called IC50 is the point on the concentration scale where inhibition reaches its midpoint. `CC(C)N1C2CCC1CC(N1CCC(c3cc(F)c4nc(-c5ccc(S(C)(=O)=O)cc5)n(C5CC5)c4c3)CC1)C2` (single isomer, unassigned) [Example 117, 1-cyclopropyl-4-fluoro-6-(1-(8-isopropyl-8-azabicyclo[3.2.1]octan-3-yl)piperidin-4-yl)-2-(4-(methylsulfonyl)phenyl)-1H-benzo[d]imidazole]: the concentration for half-maximal inhibition (IC50) in assay [1] (setting [4]) is 71 nM; in assay [2], 2200 nM; in assay [3], greater than 50000 nM.
Regarding `Cc1cc(C2CCN(C3CCN(CC(C)C)CC3)CC2)cc2[nH]c(-c3ccc4nccn4c3)nc12` [Example 25, 2-(imidazo[1,2-a]pyridin-6-yl)-6-(1′-isobutyl-[1,4′-bipiperidin]-4-yl)-4-methyl-1H-benzo[d]imidazole], the concentration for half-maximal inhibition (IC50) in assay [1] (setting [4]) is 160 nM; in assay [1] (setting [5]) it was 164 nM; in assay [2], 3000 nM; in assay [3], greater than 50000 nM.
Consider `COc1ccc(-c2nc3cc(C4CCN(C5CCN(C(C)C)CC5)CC4)ccc3n2C(C)C)cc1OC` [Example 6, 2-(3,4-dimethoxyphenyl)-1-isopropyl-5-(1′-isopropyl-[1,4′-bipiperidin]-4-yl)-1H-benzo[d]imidazole], for which the IC50 in assay [1] (setting [4]) was determined as 190 nM; in assay [1] (setting [5]), 191 nM; in assay [2], 2900 nM; in assay [3], 29000 nM.
Consider `Cn1c(-c2ccc(S(C)(=O)=O)cc2)nc2c(F)c(C3CCN(C4CCN(C5CC5)CC4)CC3)ccc21` [Example 185, 5-(1′-cyclopropyl-[1,4′-bipiperidin]-4-yl)-4-fluoro-1-methyl-2-(4-(methylsulfonyl)phenyl)-1H-benzo[d]imidazole], for which the IC50 in assay [1] was 700 nM; in assay [1] (setting [5]), 697 nM; in assay [2], greater than 50000 nM; in assay [3], greater than 50000 nM.
For `Cc1cc(C2CCN(C3CC4CCC(C3)N4CC(C)C)CC2)cc2c1nc(-c1ccc(S(C)(=O)=O)c(F)c1)n2C` (centres unmarked) [Example 342, 2-(3-fluoro-4-(methylsulfonyl)phenyl)-6-(1-(8-isobutyl-8-azabicyclo[3.2.1]octan-3-yl)piperidin-4-yl)-1,4-dimethyl-1H-benzo[d]imidazole], the 50% inhibitory concentration (IC50) is 123 nM in assay [1] (setting [5]), 120 nM in assay [1] (setting [6]), 12700 nM in assay [2] and greater than 25000 nM in assay [3].
`CC(C)CN1CCC(N2CCC(c3ccc4nc(-c5ccc(S(C)(=O)=O)cc5)n(C)c4c3F)CC2)CC1` [Example 259, 7-fluoro-6-(1′-isobutyl-[1,4′-bipiperidin]-4-yl)-1-methyl-2-(4-(methylsulfonyl)phenyl)-1H-benzo[d]imidazole]: the IC50 in assay [1] was 500 nM; in assay [1] (setting [5]) it was 500 nM; in assay [2], greater than 50000 nM; in assay [3] it was greater than 50000 nM.
On to `CS(=O)(=O)c1ccc(-c2nc3c(F)cc(C4CCN(C5CC6CCC(C5)N6C5CCOCC5)CC4)cc3n2C2CC2)cc1` (centres unmarked) [Example 329, 1-cyclopropyl-4-fluoro-2-(4-(methylsulfonyl)phenyl)-6-(1-(8-(tetrahydro-2H-pyran-4-yl)-8-azabicyclo[3.2.1]octan-3-yl)piperidin-4-yl)-1H-benzo[d]imidazole], for which the IC50 is 28 nM in assay [1] (setting [5]), 28 nM in assay [1] (setting [6]), 1200 nM in assay [2] and greater than 50000 nM in assay [3].
For `CC(C)N1C2CCC1CC(N1CCC(c3cc4nc(-c5ccc(S(C)(=O)=O)cc5)n(C)c4cc3F)CC1)C2` (single isomer, unassigned) [Example 101, 6-fluoro-5-(1-(8-isopropyl-8-azabicyclo[3.2.1]octan-3-yl)piperidin-4-yl)-1-methyl-2-(4-(methylsulfonyl)phenyl)-1H-benzo[d]imidazole], the IC50 was 75 nM in assay [1] (setting [4]), 19500 nM in assay [2] and greater than 50000 nM in assay [3].
`Cc1cc(C2CCN(C3CC4CCC(C3)N4C3CCC3)CC2)cc2c1nc(-c1ccc(S(C)(=O)=O)cc1)n2C` (single isomer, unassigned) [Example 152, 6-(1-(8-cyclobutyl-8-azabicyclo[3.2.1]octan-3-yl)piperidin-4-yl)-1,4-dimethyl-2-(4-(methylsulfonyl)phenyl)-1H-benzo[d]imidazole]: the IC50 in assay [1] is 84 nM; in assay [1] (setting [5]) it was 84 nM; in assay [2] it was 14700 nM; in assay [3], greater than 25000 nM.
On to `Cc1cc(C2CCN(C3CC4CCC(C3)N4CC(C)C)CC2)cc2[nH]c(-c3ccc(S(C)(=O)=O)c(F)c3)nc12` (centres unmarked) [Example 346, 2-(3-fluoro-4-(methylsulfonyl)phenyl)-6-(1-(8-isobutyl-8-azabicyclo[3.2.1]octan-3-yl)piperidin-4-yl)-4-methyl-1H-benzo[d]imidazole], for which the IC50 is 56 nM in assay [1] (setting [5]), 56 nM in assay [1] (setting [6]), 7600 nM in assay [2] and greater than 25000 nM in assay [3].

The values above are taken from US12492188B2, “1H-benzo[D]imidazole derivatives as TLR9 inhibitors for the treatment of fibrosis” (BRISTOL-MYERS SQUIBB COMPANY, priority 2020, dated 2025).
